According to ChEMBL document CHEMBL1153969, “N-Hydroxy-(4-oxime)-cinnamide: a versatile scaffold for the synthesis of novel histone deacetylase [correction of deacetilase] (HDAC) inhibitors” (Bioorg Med Chem Lett, 2009):

Columns and labels:
NB-4 = experiment: Cytotoxicity against human NB4 cells after 48 hrs by SRB assay; assay type: functional, cell-based; conditions: NB-4, 48 h
NCI-H460 = experiment: Cytotoxicity against human NCI-H460 cells after 48 hrs by SRB assay; assay type: functional, cell-based; conditions: NCI-H460, 48 h
HCT-116 = experiment: Cytotoxicity against human HCT116 cells after 48 hrs by SRB assay; assay type: functional, cell-based; conditions: HCT-116, 48 h
Histone deacetylase 3 = Histone deacetylase 3 (Homo sapiens, UniProt O15379); experiment: Inhibition of human HDAC3
Chain of Histone deacetylase 3 (O15379 whole entry): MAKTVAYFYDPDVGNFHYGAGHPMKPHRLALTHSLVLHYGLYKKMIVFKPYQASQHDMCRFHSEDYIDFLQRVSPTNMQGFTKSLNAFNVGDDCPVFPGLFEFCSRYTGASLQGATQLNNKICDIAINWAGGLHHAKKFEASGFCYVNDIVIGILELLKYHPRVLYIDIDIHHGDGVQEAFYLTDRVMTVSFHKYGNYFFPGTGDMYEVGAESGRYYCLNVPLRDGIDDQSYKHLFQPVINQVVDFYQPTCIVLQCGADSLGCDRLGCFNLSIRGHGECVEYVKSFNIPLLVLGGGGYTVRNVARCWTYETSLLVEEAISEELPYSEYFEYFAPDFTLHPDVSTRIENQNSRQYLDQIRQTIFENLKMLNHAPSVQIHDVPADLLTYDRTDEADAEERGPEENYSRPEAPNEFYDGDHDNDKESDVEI

Histone deacetylase 5 = Histone deacetylase 5 (Homo sapiens, UniProt Q9UQL6); experiment: Inhibition of human HDAC5
Chain of Histone deacetylase 5 (Q9UQL6 whole entry): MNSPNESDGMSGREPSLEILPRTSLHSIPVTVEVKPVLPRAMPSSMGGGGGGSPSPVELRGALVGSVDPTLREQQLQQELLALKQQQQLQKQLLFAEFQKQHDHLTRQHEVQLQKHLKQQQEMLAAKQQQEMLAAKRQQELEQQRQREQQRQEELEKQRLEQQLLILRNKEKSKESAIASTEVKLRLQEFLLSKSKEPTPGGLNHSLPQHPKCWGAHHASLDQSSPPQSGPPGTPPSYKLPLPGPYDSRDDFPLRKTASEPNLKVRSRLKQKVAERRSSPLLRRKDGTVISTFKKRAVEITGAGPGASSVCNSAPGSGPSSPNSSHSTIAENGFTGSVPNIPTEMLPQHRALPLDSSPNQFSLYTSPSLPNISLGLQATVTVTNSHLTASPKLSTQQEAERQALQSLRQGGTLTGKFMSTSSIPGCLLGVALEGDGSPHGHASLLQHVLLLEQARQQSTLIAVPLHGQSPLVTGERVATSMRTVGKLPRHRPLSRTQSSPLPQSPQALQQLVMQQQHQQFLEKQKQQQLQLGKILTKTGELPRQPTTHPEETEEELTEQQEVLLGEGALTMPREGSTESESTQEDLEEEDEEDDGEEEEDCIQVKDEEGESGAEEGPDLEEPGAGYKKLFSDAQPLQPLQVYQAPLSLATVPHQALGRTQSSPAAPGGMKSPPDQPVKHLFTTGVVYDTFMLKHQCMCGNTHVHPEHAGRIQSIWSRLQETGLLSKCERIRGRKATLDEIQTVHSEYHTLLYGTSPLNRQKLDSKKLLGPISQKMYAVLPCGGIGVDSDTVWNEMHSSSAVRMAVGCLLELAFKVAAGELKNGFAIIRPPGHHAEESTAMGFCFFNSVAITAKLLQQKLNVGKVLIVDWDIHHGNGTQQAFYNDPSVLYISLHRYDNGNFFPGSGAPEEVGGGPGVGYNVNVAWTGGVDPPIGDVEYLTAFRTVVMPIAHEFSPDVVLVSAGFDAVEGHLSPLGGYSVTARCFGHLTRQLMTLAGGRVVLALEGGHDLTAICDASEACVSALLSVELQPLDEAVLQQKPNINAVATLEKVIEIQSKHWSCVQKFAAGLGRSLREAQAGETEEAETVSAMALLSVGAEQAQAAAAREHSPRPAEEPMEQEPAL

Histone deacetylase 7 = molecular target: T1, Histone deacetylase 7 (Homo sapiens, UniProt Q8WUI4); experiment: Inhibition of human HDAC7
T1 sequence (Q8WUI4 whole entry): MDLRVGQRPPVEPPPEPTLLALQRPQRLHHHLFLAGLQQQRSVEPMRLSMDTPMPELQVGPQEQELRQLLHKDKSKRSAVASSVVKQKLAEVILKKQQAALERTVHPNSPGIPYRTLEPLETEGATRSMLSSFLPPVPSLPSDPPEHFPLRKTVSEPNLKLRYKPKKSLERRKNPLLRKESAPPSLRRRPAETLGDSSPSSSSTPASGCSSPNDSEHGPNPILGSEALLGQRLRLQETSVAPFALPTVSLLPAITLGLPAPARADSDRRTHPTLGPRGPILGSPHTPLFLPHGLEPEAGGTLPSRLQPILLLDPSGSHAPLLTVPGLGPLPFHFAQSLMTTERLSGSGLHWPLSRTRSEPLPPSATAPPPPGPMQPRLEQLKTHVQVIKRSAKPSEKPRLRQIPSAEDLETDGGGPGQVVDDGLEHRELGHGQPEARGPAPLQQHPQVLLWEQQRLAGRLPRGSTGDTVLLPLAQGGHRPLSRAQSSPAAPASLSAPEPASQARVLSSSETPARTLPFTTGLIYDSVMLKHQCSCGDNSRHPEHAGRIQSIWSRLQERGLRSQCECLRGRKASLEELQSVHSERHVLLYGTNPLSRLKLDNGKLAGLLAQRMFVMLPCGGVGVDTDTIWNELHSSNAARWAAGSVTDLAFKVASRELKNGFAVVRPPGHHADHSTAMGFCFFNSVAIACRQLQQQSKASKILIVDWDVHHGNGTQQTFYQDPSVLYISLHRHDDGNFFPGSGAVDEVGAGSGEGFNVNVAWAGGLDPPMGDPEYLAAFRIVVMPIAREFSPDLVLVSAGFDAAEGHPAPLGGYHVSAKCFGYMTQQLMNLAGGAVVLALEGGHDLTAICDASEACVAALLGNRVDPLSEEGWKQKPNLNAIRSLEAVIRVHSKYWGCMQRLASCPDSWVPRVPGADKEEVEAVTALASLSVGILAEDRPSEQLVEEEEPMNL

Histone deacetylase 8 = molecular target: T2, Histone deacetylase 8 (Homo sapiens, UniProt Q9BY41); experiment: Inhibition of human HDAC8
T2 sequence (Q9BY41 whole entry): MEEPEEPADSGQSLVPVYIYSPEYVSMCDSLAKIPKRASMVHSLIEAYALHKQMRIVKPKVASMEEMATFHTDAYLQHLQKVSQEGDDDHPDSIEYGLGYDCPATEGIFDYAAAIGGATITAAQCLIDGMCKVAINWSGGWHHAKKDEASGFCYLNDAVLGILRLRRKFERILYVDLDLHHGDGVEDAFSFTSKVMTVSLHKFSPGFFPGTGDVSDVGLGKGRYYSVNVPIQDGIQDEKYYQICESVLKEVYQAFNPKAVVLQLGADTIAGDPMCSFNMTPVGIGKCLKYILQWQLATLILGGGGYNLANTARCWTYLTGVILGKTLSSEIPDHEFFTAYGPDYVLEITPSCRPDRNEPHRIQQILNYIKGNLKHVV

Histone deacetylase 9 = Histone deacetylase 9 (Homo sapiens, UniProt Q9UKV0); experiment: Inhibition of human HDAC9
Chain of Histone deacetylase 9 (Q9UKV0 whole entry): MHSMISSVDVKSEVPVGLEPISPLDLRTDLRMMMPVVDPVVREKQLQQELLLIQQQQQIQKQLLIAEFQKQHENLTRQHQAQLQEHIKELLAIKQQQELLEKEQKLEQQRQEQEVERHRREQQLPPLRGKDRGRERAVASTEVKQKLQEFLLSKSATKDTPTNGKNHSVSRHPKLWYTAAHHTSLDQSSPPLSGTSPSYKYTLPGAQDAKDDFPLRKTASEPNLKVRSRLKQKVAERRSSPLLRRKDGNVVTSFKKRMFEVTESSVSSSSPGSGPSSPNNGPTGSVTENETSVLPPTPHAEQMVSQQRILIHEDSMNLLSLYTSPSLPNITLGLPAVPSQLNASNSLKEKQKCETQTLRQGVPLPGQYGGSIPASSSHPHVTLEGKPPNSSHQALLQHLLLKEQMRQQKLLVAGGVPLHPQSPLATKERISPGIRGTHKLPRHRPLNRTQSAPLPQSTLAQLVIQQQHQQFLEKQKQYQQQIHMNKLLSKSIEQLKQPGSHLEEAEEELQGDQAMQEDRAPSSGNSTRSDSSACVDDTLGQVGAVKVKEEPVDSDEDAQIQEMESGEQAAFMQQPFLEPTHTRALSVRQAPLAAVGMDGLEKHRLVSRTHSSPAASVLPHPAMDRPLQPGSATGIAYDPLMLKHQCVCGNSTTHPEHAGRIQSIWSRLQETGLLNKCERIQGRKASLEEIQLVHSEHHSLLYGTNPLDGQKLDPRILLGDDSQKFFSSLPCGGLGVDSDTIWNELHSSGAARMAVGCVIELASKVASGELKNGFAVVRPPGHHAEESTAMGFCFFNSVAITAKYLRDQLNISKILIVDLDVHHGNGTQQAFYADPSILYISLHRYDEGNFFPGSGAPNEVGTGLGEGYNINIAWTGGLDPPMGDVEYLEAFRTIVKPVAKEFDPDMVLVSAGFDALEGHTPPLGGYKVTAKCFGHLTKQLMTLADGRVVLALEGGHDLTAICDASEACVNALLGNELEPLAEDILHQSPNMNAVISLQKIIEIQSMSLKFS

[1] = molecular target: T3, Polyamine deacetylase HDAC10 (Homo sapiens, UniProt Q969S8); experiment: Inhibition of human HDAC10
T3 sequence (Q969S8 whole entry): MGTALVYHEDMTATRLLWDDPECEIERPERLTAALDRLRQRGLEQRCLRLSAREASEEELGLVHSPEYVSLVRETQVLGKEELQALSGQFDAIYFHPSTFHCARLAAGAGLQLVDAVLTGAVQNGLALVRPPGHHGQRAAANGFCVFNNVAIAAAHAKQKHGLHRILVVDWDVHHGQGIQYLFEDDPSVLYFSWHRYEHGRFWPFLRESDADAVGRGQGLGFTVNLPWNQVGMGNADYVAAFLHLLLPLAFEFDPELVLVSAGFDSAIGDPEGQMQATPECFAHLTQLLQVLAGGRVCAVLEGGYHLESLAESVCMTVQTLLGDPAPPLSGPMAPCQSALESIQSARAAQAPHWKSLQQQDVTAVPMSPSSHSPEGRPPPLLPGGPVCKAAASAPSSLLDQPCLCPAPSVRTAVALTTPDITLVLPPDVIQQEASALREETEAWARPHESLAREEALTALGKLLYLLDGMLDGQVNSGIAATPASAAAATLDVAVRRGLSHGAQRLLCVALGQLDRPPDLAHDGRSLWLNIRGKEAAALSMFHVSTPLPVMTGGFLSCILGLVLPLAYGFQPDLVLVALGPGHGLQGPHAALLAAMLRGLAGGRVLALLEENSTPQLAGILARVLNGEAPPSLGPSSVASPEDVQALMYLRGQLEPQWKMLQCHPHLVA

Histone deacetylase 11 = molecular target: T4, Histone deacetylase 11 (Homo sapiens, UniProt Q96DB2); experiment: Inhibition of human HDAC11
T4 sequence (Q96DB2 whole entry): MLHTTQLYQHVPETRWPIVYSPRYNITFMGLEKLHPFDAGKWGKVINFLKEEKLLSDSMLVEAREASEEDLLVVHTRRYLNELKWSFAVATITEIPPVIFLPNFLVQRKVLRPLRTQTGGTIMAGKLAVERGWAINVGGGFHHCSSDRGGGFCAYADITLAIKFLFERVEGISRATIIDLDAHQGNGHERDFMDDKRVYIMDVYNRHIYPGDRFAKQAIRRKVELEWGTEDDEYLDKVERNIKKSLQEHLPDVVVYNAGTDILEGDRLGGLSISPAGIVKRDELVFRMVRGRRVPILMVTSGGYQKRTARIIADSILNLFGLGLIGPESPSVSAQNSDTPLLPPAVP

Histone deacetylase 1 = Histone deacetylase 1 (Homo sapiens, UniProt Q13547)
Chain of Histone deacetylase 1 (Q13547 whole entry): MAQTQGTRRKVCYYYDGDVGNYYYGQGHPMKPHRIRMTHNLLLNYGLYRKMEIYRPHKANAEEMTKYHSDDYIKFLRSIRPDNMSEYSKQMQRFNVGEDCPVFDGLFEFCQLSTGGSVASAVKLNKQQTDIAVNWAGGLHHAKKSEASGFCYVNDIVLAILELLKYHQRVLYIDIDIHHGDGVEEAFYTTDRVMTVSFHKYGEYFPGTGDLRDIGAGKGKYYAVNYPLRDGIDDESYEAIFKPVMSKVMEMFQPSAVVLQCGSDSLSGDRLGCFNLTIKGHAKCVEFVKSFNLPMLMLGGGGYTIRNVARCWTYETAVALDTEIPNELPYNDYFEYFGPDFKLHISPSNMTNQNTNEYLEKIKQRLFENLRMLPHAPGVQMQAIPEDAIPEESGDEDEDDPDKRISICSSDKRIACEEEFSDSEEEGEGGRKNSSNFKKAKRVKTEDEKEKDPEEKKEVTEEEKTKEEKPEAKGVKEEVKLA

Histone deacetylase 2 = Histone deacetylase 2 (Homo sapiens, UniProt Q92769); experiment: Inhibition of human HDAC2
Chain of Histone deacetylase 2 (Q92769 whole entry): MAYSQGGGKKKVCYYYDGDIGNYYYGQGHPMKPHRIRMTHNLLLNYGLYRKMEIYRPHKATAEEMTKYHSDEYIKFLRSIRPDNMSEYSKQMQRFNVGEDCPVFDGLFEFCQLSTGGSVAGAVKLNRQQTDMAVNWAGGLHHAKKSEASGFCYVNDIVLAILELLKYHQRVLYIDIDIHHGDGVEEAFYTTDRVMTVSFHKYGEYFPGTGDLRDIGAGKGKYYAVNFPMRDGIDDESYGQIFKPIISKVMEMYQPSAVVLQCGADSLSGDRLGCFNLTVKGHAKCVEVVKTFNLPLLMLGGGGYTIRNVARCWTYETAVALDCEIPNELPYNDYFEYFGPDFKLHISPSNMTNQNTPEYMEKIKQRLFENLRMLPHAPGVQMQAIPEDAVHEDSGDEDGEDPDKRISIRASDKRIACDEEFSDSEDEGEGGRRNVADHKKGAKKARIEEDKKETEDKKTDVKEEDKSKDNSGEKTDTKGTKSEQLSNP

[2] = molecular target: T5, Protein deacetylase HDAC6 (Homo sapiens, UniProt Q9UBN7); experiment: Inhibition of human HDAC6
T5 sequence (Q9UBN7 whole entry): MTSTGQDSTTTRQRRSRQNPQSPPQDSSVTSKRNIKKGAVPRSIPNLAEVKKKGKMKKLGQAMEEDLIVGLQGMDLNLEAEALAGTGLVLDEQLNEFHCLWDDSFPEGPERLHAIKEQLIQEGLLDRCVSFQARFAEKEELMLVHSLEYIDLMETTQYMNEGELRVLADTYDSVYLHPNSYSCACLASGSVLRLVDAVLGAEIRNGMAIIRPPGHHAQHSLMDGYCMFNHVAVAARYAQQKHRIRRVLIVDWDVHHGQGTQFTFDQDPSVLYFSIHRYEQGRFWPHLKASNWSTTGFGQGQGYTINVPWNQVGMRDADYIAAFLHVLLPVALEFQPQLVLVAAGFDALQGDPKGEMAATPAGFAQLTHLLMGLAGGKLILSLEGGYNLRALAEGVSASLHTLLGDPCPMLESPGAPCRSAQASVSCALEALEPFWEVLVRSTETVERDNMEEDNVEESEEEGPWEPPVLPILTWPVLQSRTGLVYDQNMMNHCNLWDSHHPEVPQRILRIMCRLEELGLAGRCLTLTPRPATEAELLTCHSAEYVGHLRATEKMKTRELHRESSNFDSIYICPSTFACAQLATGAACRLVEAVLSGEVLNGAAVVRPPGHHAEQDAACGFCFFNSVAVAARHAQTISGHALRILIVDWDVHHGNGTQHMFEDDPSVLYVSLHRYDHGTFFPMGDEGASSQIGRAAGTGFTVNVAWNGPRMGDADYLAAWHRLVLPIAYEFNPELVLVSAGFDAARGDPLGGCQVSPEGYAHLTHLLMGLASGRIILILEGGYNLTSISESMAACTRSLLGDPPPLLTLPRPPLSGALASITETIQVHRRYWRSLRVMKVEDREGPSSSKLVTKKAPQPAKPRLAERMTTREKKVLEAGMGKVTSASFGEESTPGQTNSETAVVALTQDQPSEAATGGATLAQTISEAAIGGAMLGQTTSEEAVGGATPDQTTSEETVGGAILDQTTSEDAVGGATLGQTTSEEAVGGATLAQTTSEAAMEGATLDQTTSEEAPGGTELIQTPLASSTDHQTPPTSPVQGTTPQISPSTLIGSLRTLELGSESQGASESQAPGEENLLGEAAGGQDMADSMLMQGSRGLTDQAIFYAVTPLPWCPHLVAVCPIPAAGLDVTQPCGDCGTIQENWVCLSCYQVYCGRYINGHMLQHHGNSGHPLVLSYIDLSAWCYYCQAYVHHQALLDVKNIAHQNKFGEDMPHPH

Histone deacetylase 4 = Histone deacetylase 4 (Homo sapiens, UniProt P56524)
Chain of Histone deacetylase 4 (P56524 whole entry): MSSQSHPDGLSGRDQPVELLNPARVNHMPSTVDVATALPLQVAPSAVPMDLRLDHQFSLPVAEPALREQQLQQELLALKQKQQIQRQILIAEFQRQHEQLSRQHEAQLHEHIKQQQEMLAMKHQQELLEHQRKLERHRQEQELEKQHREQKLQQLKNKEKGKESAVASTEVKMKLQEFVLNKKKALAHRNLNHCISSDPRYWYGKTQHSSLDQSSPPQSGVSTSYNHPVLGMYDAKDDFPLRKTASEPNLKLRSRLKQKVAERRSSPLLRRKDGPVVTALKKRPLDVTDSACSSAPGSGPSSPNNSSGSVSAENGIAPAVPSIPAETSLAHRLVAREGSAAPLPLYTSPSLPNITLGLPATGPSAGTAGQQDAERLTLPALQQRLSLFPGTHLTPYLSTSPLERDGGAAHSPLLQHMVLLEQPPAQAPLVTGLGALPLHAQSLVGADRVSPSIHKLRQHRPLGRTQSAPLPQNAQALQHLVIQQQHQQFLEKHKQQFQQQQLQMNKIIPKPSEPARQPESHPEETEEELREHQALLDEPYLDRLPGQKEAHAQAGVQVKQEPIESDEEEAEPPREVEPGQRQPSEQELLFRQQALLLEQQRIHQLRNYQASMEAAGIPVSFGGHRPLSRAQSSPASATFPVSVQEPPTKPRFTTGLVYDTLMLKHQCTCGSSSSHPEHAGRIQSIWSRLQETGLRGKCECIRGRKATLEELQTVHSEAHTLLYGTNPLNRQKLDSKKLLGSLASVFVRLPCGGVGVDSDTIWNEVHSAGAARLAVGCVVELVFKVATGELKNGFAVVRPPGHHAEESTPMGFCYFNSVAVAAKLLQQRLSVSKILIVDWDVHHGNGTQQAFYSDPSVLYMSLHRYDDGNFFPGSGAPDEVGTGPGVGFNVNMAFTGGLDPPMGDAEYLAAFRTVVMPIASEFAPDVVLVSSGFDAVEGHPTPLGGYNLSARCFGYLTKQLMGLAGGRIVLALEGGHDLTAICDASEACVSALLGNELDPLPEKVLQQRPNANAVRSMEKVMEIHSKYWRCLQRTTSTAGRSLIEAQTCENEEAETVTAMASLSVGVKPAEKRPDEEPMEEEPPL
Description: Inhibition of human HDAC4

Row | Structure (SMILES) | IC50 (NB-4) [µM] | IC50 (NCI-H460) [µM] | IC50 (HCT-116) [µM] | IC50 (Histone deacetylase 3) [µM] | IC50 (Histone deacetylase 5) [µM] | IC50 (Histone deacetylase 7) [µM] | IC50 (Histone deacetylase 8) [µM] | IC50 (Histone deacetylase 9) [µM] | IC50 [1] [µM] | IC50 (Histone deacetylase 11) [µM] | IC50 (Histone deacetylase 1) [µM] | IC50 (Histone deacetylase 2) [µM] | IC50 [2] [µM] | IC50 (Histone deacetylase 4) [µM]
1 | O=C(CCc1ccc(/C=N/OCc2ccc([N+](=O)[O-])cc2)cc1)NO | 0.95 | 7.7 | 3.1 | – | – | – | – | – | – | – | – | – | – | –
2 | O=C(C#Cc1ccc(/C=N/OCc2ccc([N+](=O)[O-])cc2)cc1)NO | > 20 | > 20 | > 20 | – | – | – | – | – | – | – | – | – | – | –
3 | O=C(/C=C/c1ccc(-c2cc(CN3CCOCC3)on2)cc1)NO | – | 7 | 4 | 3.14 | 10.8 | 22.3 | 0.127 | 11.2 | 6.1 | 6.26 | 6.26 | – | – | –
4 | O=C(/C=C/c1ccc(/C=N/OCc2ccccc2)cc1)NO | 0.62 | 1.6 | 2.8 | – | – | – | – | – | – | – | – | – | – | –
5 | O=C(/C=C/c1ccc(/C=N/OCc2c(F)c(F)c(F)c(F)c2F)cc1)NO | 0.7 | 1.6 | 2.4 | 2.8 | 7.2 | – | 1.29 | 12 | 7.36 | 5.48 | 5.48 | 11 | 0.661 | 38.8
6 | O=C(/C=C/c1ccc(/C=N/OCc2ccc([N+](=O)[O-])cc2)cc1)NO | 0.76 | 2.6 | 1.2 | 0.16 | 1.16 | 2.3 | 0.07 | 2.47 | 1.58 | 0.79 | 0.79 | 2.67 | 0.124 | 2.04
7 | O=C(/C=C/c1ccc(/C=N/Oc2ccccc2)cc1)NO | 2.7 | 5.1 | 3.7 | – | – | – | – | – | – | – | – | – | – | –
8 | COC(=O)c1ccc(CO/N=C/c2ccc(/C=C/C(=O)NO)cc2)cc1 | 0.82 | 1.7 | 1.7 | 0.659 | 3.67 | – | 0.603 | 6.43 | 5.43 | 10.8 | 1.82 | 15.8 | 0.094 | 12.9
9 | C=CCO/N=C/c1ccc(/C=C/C(=O)NO)cc1 | 1.4 | 3.2 | 3.5 | – | – | – | – | – | – | – | – | – | – | –
10 | O=C(/C=C/c1ccc(/C=N/OCCN2CCOCC2)cc1)NO | 1.7 | 2.9 | 1.8 | 4.08 | 7.36 | – | 0.235 | 13.1 | 7.84 | 3.06 | 3.06 | 27.7 | 0.303 | 16.1
11 | O=C(/C=C/c1ccc(C2=NOC(CN3CCOCC3)C2)cc1)NO (configuration not stated) | – | 9.9 | 3 | – | – | – | – | – | – | – | – | – | – | –
12 | Nc1ccccc1NC(=O)/C=C/c1ccc(/C=N/OCCN2CCOCC2)cc1 | 8.9 | > 20 | > 20 | – | – | – | – | – | – | – | – | – | – | –
13 | O=C(/C=C/c1ccc(/C=N/O)cc1)NO | 2.9 | 6.3 | 3.5 | – | – | – | – | – | – | – | – | – | – | –
14 | O=C(/C=C/c1cccc(/C=N/OCCN2CCOCC2)c1)NO | 1.9 | 6.6 | 4 | – | – | – | – | – | – | – | – | – | – | –
15 | Nc1ccccc1NC(=O)/C=C/c1ccc(/C=N/OCc2ccc([N+](=O)[O-])cc2)cc1 | > 20 | > 20 | > 20 | – | – | – | – | – | – | – | – | – | – | –
